{"source": "patent US5086165A", "about": "“Inhibitors of retroviral protease with a ketomethylene isosteric replaced amide bond” (Washington University, priority 1991, dated 1992)", "key": {"[1]": {"target": "T1, HIV protease (Human immunodeficiency virus type 1 group M subtype B, UniProt P04585)", "type": "biochemical", "parameters": "made in house; host or cells: chemical synthesis (gift of Dr. Stephen Kent, Caltech) or E. coli (gift of Dr. George Glover, Monsanto)", "conditions": "for Relative Rate: relative cleavage rate: percent of standard substrate concentration cleaved in twenty minutes, control Ac-Thr-Ile-Met-Met-Gln-Arg-NH2 = 1.00", "method": "HIV protease assay. The HIV protease assay was conducted using either synthetic HIV protease [Schneider and Kent, Cell 54, 363 (1988)] kindly supplied by Dr. Stephen Kent of Caltech, or cloned material expressed in E. coli supplied by Dr. George Glover of the Monsanto Company. […] Synthetic protease (1 mg/ml) was dissolved in a buffer (20 mM PIPES, 0.5% NP-40 detergent, 1 mM dithiothreitol), pH 6.5 . Substrates were also dissolved in the same buffer at 1 mg/ml concentration. 5 μl 1 of substrate and 5 μl of HIV protease were added to an Eppendorf tube which was centrifuged for one minute and incubated at 25° for the desired time. The reaction was stopped by the addition of 50 μl of 50% TFA. The sample was diluted with 200 μl of water and applied to a C4 HPLC column developed with 0.1% TFA for 5 min followed by a gradient of 0-50% acetonitrile in 50 min. For inhibitor studies, 5 μl of the protease solution was preincubated for 10 min with the 5 μl of inhibitor (dissolved in 10% DMSO and diluted to 1 mg/ml with buffer). Then 5 μl of test substrate, acetyl-Thr-Ile-Met-Met-Gln-Arg-NH2 was added in order to determine inhibition of cleavage. Reactions were stopped as above and cleavage rates were monitored by HPLC as above.\nSubstrate analogs were prepared in order to examine the relative hydrolysis rates of the various sites. […] Relative cleavage rates were measured by comparing the percent of a standard substrate concentration cleaved by the same concentration of enzyme in twenty minutes (linear portion of curve)."}, "[2]": {"target": "T1, HIV protease", "conditions": "cited from earlier work"}, "[3]": {"target": "T2, retroviral protease (HIV-1) (Human immunodeficiency virus type 1 group M subtype B, UniProt P04585)", "T2 construct": "the retroviral protease, is contained within the polyprotein", "test": "fluorometric assay for HIV protease (Toth and Marshall)", "type": "biochemical", "conditions": "for IC50: where isomers were resolved, activities of both isomers are shown; for inhibition at 10 µM: read-out: percent at 10 μM, at 10 μM", "method": "These peptide analogs were assayed in solution for their ability to inhibit retroviral protease (HIV-1) by a fluorometric assay for HIV protease as described by Toth and Marshall, Int. J. Peptide Protein Res. 36, 546-550 (1990), and in U.S. Pat. No. 5,011,910.\nTable 2, below, sets forth the median inhibitory concentration, IC50, (μM) for the compounds thus tested. In those cases where the isomers were resolved, the activities of both isomers are shown."}}, "note": "“And” between values parts separate entries of the source, which are not always exact repeats. Equal values may be shown once. Read-outs that look alike come from different tables or passages of the source. Where a SMILES comes first, the peptide text is derived from it."}
{"compound": "Ac-QNYPIV-NH2 [Ac--Gln--Asn--Tyr--Pro--Ile--Val--NH2]", "values": [{"measurement": "Relative Rate", "setting": "[1]", "result": 0.04}]}
{"compound": "SQNY-PI", "values": [{"measurement": "cleavage by HIV protease", "setting": "[2]", "result": "failed to be cleaved"}]}
{"compound": "CCCC[C@H](NC(=O)[C@@H](NC(=O)[C@@H](NC(=O)c1ccccc1N)[C@@H](C)O)[C@@H](C)CC)C(=O)CC(Cc1ccc2ccccc2c1)C(=O)N[C@@H](CCC(N)=O)C(=O)N[C@@H](CCCNC(=N)N)C(N)=O", "note": "(stereo partly drawn) [Abz-Thr-Ile-Nle-.PSI.(K)2-Nal-Gln-Arg-NH2] (HELM PEPTIDE1{[Nc1ccccc1C(=O)[*:2]].T.I.[CCCC[C@H](N[*:1])C(=O)CC(Cc1ccc2ccccc2c1)C(=O)[*:2]].Q.R.[am]}$$$$V2.0)", "values": [{"measurement": "IC50", "setting": "[3]", "result": 4.8, "unit": "nM"}]}
{"compound": "Ac--Thr--Ile--Nle--Hle--Gln--Arg--NH2", "values": [{"measurement": "Relative Rate", "setting": "[1]", "result": 0.95}]}
{"compound": "Ac-TIMMQR-NH2 [Ac--Thr--Ile--Met--Met--Gln--Arg--NH2, Ac-Thr-Ile-Met-Met-Gln-Arg-NH2]", "values": [{"measurement": "Km", "setting": "[1]; as substrate of HIV protease", "result": 1400, "unit": "µM"}, {"measurement": "Vmax", "setting": "[1]; as substrate of HIV protease", "result": 725, "unit": "nmol/min/mg"}, {"measurement": "Relative Rate", "setting": "[1]", "result": 1.00}]}
{"compound": "CCCC[C@H](NC(=O)[C@@H](NC(=O)c1cnc2ccccc2n1)[C@@H](C)CC)C(=O)CC(Cc1ccc2ccccc2c1)C(=O)N[C@@H](CCC(N)=O)C(N)=O", "note": "(stereo partly drawn) [Qui--Ile--Nle.psi.(K)2-Nal--Gln--NH2, Qui-Ile-Nle.PSI.(K)2-Nal-Gln-NH2]", "values": [{"measurement": "inhibition at 10 µM", "setting": "[3]", "result": 54, "unit": "%"}]}
{"compound": "CCCC[C@H](NC(=O)c1cnc2ccccc2n1)C(=O)CC(Cc1ccc2ccccc2c1)C(=O)N[C@@H](CCC(N)=O)C(N)=O", "note": "(stereo partly drawn) [Qui--Nle.psi.(K)2-Nal--Gln--NH2, Qui-Nle.PSI.(K)2-Nal-Gln-NH2]", "values": [{"measurement": "inhibition at 10 µM", "setting": "[3]", "result": 7, "unit": "%"}]}
{"compound": "VSQNYPIV", "values": [{"measurement": "Km", "setting": "[2]; gag p17/gag p24 cleavage site substrate", "result": 2500, "unit": "µM"}]}
{"compound": "CCCC[C@H](NC(=O)c1ccc2ccccc2n1)C(=O)CC(Cc1ccc2ccccc2c1)C(=O)N[C@@H](CCC(N)=O)C(=O)N[C@@H](CCCNC(=N)N)C(N)=O", "note": "(stereo partly drawn) [Qua--Nle.psi.(K)2-Nal--Gln--Arg--NH2, Qua-Nle.PSI.(K)2-Nal-Gln-Arg-NH2]", "values": [{"measurement": "inhibition at 10 µM", "setting": "[3]", "result": 96, "unit": "%"}]}
{"compound": "CCCC[C@H](NC(=O)[C@@H](NC(=O)c1ccc2ccccc2n1)[C@@H](C)CC)C(=O)CC(Cc1ccc2ccccc2c1)C(=O)N[C@@H](CCC(N)=O)C(=O)N[C@@H](CCCNC(=N)N)C(N)=O", "note": "(stereo partly drawn) [Qua-Ile-Nle.PSI.(K)2-Nal-Gln-Arg-NH2]", "values": [{"measurement": "IC50", "setting": "[3]", "result": 8.5, "unit": "nM"}]}
{"compound": "SQNY-PIV", "values": [{"measurement": "rate of cleavage relative to the octapeptide", "setting": "[2]; relative to VSQNYPIV", "result": 90, "unit": "%"}]}
{"compound": "CCCC[C@H](NC(=O)[C@@H](NC(=O)[C@@H](NC(=O)c1cnc2ccccc2n1)[C@@H](C)O)[C@@H](C)CC)C(=O)CC(Cc1ccc2ccccc2c1)C(=O)N[C@@H](CCC(N)=O)C(N)=O", "note": "(stereo partly drawn) [Qui-Thr-Ile-Nle.PSI.(K)2-Nal-Gln-NH2]", "values": [{"measurement": "IC50", "setting": "[3]", "result": "1110 nM and 8080 nM"}]}
{"compound": "Aba--Thr--Ile--Nle--PnF--Gln--Arg--NH2", "values": [{"measurement": "Relative Rate", "setting": "[1]", "result": 1.46}]}
{"compound": "acetyl-QNY-PIV", "values": [{"measurement": "cleavage by HIV protease", "setting": "[2]", "result": "failed to be cleaved"}]}
{"compound": "CC[C@H](C)[C@H](NC(=O)[C@@H](NC(=O)c1ccccc1N)[C@@H](C)O)C(=O)N[C@@H](Cc1ccccc1)C(=O)CC(C)C(=O)N[C@@H](CCC(N)=O)C(=O)N[C@@H](CCCNC(=N)N)C(N)=O", "note": "(stereo partly drawn) [Abz-Thr-Ile-Phe.PSI.(K)Ala-Gln-Arg-NH2] (HELM PEPTIDE1{[Nc1ccccc1C(=O)[*:2]].T.I.[CC(CC(=O)[C@H](Cc1ccccc1)N[*:1])C(=O)[*:2]].Q.R.[am]}$$$$V2.0)", "values": [{"measurement": "IC50", "setting": "[3]", "result": 33, "unit": "nM"}]}
